The experiment concerns interleukin-8 secreted by normal human epidermal keratinocytes (NHEKs). Nature of the experiment: Inhibition of IL-8 secretion by NHEKs after stimulation with PMA (anti-irritant test). Format: cell-based. The settings on record: NHEK, test compounds at 10 μM, NHEKs with 160 nM PMA, 24 hours at 37° C., IL-8 by ELISA. From the text:
Inhibition of the response of superficial epidermal cells to an irritant agent by assay of the interleukin-8 secreted by normal human epidermal keratinocytes (NHEKs) after stimulation with phorbol 12-myristate 13-acetate (PMA) as irritant agent.
This study uses the test developed by Wilmer [Wilmer, J. L. et al., J. invest. Dermatol., 102: 915-922 (1994)]. This test allows the evaluation of the antiirritant potential of various molecules, on a human keratinocyte (NHEK) cell line. In this test, an irritant situation is mimicked by exacerbating the production of IL-8 of the NHEKs by adding PMA to the culture medium, IL-8 being involved in initiating the keratinocyte irritation. The antiirritant effect of a molecule is then measured by means of its inhibitory action with respect to this exacerbated production.
Normal human epidermal keratinocytes (NHEKs) sold by the company Clonetics and distributed in France by the company TEBU are incubated in the presence of 160 nM of PMA for 24 hours at 37° C. In response to the PMA, the production of the chemotactic agent interleukin-8 (IL-8) is measured by enzymatic assay using an assay kit (Elisa D8050) sold by the company R&D. The absorbance values are measured using a microplate reader (MRX/Dynatech) according to the procedures supplied with. the assay kit. […]

With `c1ccc(OCCCn2cnc(-c3ccccc3)c2-c2ccccc2)cc1` [3-phenoxypropyl(4,5-diphenylimidazol)-1-yl], the inhibition at 10 µM worked out at 32%. `c1ccc(COCCCn2cnc(-c3ccccc3)c2-c2ccccc2)cc1` [Example 1, 3-benzyloxypropyl-(4,5-diphenylimidazol)-1-yl] came in with an inhibition at 10 µM of 41%.

The values are drawn from patent US20040192928A1, “Novel compounds of the family of 3-alkyl-(4,5-diphenyl-imidazol-1-yl) and their use as soothing agents” (priority 2001, published 2004).
